87 compounds from a melting point compilation (Tetko et al.; mined from patent text by program, amines drawn as free bases though some values may be those of a salt) can be followed below.

Turning to `COc1ccc(C=CC(=O)Nc2c(-c3ccccc3C)c3cc4c(cc3oc2=O)CCC4)cc1OC`, the melting point was in the range of 159 to 160 °C.

`O=C(NC1=NN(c2ccc(C(=O)C(F)(F)F)cc2)CC1)C(F)(F)F`: the melting point was in the range of 228 to 230 °C.

Compound `Cc1coc2c1C(=O)CC(c1cccc(Cl)c1Cl)C2` (configuration not stated) returned a melting point of 116 to 117 °C.

Consider `O=C(O)c1ccc(Cn2cc(C3c4ccc(C(F)(F)F)cc4C=Cc4cc(C(F)(F)F)ccc43)c(=O)[nH]c2=O)o1`, for which the melting point fell in the range of 203 to 206 °C.

In turn, `COc1cc(C)c(C(O)c2c(O)ccc(Cl)c2C)c(OC)c1OC` (configuration not stated) registered a melting point of 140 to 142 °C.

`C=C1C(=O)NC(=O)N1c1ccccc1` registered a melting point of 168 to 170 °C.

Take `CNC(=O)C(NC(=O)OCc1ccccc1)C(N)=O` (configuration not stated): the melting point was in the range of 178 to 180 °C.

As to `COC(=O)c1ccccc1-c1noc(-c2cccc(C(F)(F)F)c2)n1`, the melting point fell in the range of 84.5 to 86.5 °C.

`CN1CCN(c2nc3sc4c(NCCN5CCOCC5)ncnc4c3c3c2CCC(C)(C)C3)CC1` registered a melting point of 150 to 151 °C.

`CCCc1c(OCCCOc2cc(OCC(=O)OC)ccc2C(C)=O)ccc(C(C)=O)c1O` yielded a melting point of 103 to 106 °C.

For `N#Cc1cnc2c(oc3ccccc32)c1Oc1ccc(Cl)cc1F`, the melting point lay in the range of 138 to 140 °C.

`OC1(C#CC2(F)C=CC(c3ccccc3)=CC2)CN2CCC1CC2` (configuration not stated): the melting point lay within 232 to 233 °C.

In turn, `CC(=O)Nc1ccc(C(=O)O)c([N+](=O)[O-])c1` returned a melting point of 217 to 220 °C.

With `COC(=O)CCCc1cc2nc(Cl)ccc2n1S(=O)(=O)c1cccc2nccnc12`, the melting point came out at 71 °C.

For the compound `Clc1nc(-c2ccco2)nc2ccccc12`, the melting point was 116 to 118 °C.

For the compound `COc1ccc(C2CCOCC2)c2sc(-c3ncc[nH]3)nc12`, the melting point is 220 to 224 °C.

In turn, `c1cc(CN2CCCCC2)cc(OCCCNc2nccc3ccccc23)c1` came in with a melting point of 103 to 105 °C.

For the compound `CC1(c2ccc(N)cc2)C(=O)Nc2cc(Cl)ccc2C1=O` (configuration not stated), the melting point lay in the range of 155 to 156 °C.

Turning to `COc1cc(Nc2nccc(-c3ccc(NCCCCO)nc3)n2)cc(OC)c1OC`, the melting point was 170 to 171 °C.

Turning to `COc1cc(-c2cnc3[nH]cc(C(=O)NCC(C)O)c3n2)cc(OC)c1OC` (configuration not stated), the melting point was in the range of 202 to 203 °C.

Consider `COC(=O)c1ccccc1S(=O)(=O)NC(=O)n1nc(OCC(F)(F)F)n(C)c1=O`, for which the melting point was determined as 153 °C.

`CC(C)(C(=O)O)c1cn2nc(NCCCN3CCC(OC(c4ccccc4)c4ccccc4)CC3)ccc2n1` displayed a melting point of 205 to 206 °C.

For `Cc1c(N2C[C@@H]3[C@@H](O)CCN3C2=O)ccc(C#N)c1Cl`, the melting point lay in the range of 148 to 149 °C.

The compound `OC1CSC(Oc2cc(-c3cccnc3)ccc2F)C(O)C1O` (configuration not stated) displayed a melting point of 100 °C.

`Cc1cc2c(-c3ccccc3C)c(NC(=O)Nc3ccc(F)cc3F)c(=O)n(C)c2cc1Cl` displayed a melting point of 227 to 229 °C.

`CCOC(=O)c1nc(-c2nccs2)cs1` had a melting point of 143 to 145 °C.

Take `COc1cc(Nc2nc3cccc(-c4ccc(S(C)(=O)=O)cc4)c3o2)cc(OC)c1OC`: the melting point was in the range of 205 to 207 °C.

On to `COc1ccc2c(c1)c(Cc1cc(=O)n(-c3cccc(C(F)(F)F)c3)[nH]1)c(C)n2C(=O)c1ccccc1`, for which the melting point fell in the range of 60 to 64.5 °C.

In turn, `CCOC(=O)c1c(C)nc2scnc2c1NC(C)C` yielded a melting point of 48 to 50 °C.

For the compound `OCCON=Cc1ccc(-c2ccccc2)cc1`, the melting point lay in the range of 116 to 118 °C.

For `CCOC(=O)C(O)=Cc1cc(CCc2ccc(F)cc2)ccn1`, the melting point was in the range of 129 to 130 °C.

Consider `CSC1CCC2C3CCC4=CC(=O)C=CC4(C)C3(F)C(OC(C)=O)CC12C` (configuration not stated), for which the melting point lay in the range of 169 to 170 °C.

For `O=C(Nc1ccc(Cl)c(Cl)c1)c1cc(C(F)(F)F)cc([N+](=O)[O-])c1N1CCCCC1`, the melting point came to 144 °C.

As for `CCC(O)(c1ccccc1)c1cc(C)ccc1C` (configuration not stated), the melting point is 38 to 39 °C.

Consider `CCCc1c(OCCCOc2ccccc2)ccc2c1OC(CCC(=O)O)(CCC(=O)O)CC2O` (configuration not stated), for which the melting point is 132 °C.

The compound `C=CCCCCCCCCCOc1ccc(-c2ccc(O)cc2)cc1` returned a melting point of 135 to 136 °C.

`Cc1ccc(-c2nc3ccc(N(C)C)cn3c2CN(C)C(=O)CC(C)C)cc1` showed a melting point of 200 to 202 °C.

Compound `CN(C)CCc1c(CC(C)(C)[N+](=O)[O-])c2ccccc2n1C` displayed a melting point of 87 to 90 °C.

The compound `O=C(NC1=NCCCC1)Nc1ccccc1` registered a melting point of 153 to 154 °C.

In the case of `Cc1ccc(NC(=O)c2ccc(CN3CCNC(C(N)=O)C3)c(C(F)(F)F)c2)cc1Nc1nccc(-c2cncnc2)n1` (configuration not stated), the melting point was 235 to 238 °C.

Compound `O=C(N[C@H]1CN(C(=O)N2CCC[C@H]2C(=O)O)C1=O)c1ccccc1` gave a melting point of 148 to 151 °C.

In turn, `Cc1cncc(C)c1-c1c(C)cc(C=Cc2cc(C(C)(C)C)c(O)c(C(C)(C)C)c2)cc1C` came in with a melting point of 234 to 235 °C.

For `COc1c(C)c(C)c(OC)c(CN2C(=O)C3CCCC3=Nc3ccccc32)c1C` (configuration not stated), the melting point is 202 to 204 °C.

`CN(C)CCNc1ccc(O)c2c1C(=O)c1c(Cl)ccc(Cl)c1C2=O`: the melting point was 125 to 130 °C.

The compound `CC(C)[C@H](NC(=O)c1ccc(Cn2nnc(-c3ccc(OC(=O)C(C)(C)C)cc3)n2)cc1)C(=O)OCc1ccccc1` registered a melting point of 157 to 159 °C.

Turning to `CC(C)(C)OC(=O)Nc1ccc(-c2ccc(OC(F)(F)F)cc2)cc1[N+](=O)[O-]`, the melting point was in the range of 145 to 147 °C.

`Cc1ccccc1OCC(O)CNC(C)(C)COc1ccc(C(N)=O)cn1` (configuration not stated) displayed a melting point of 122 to 128 °C.

Turning to `CCN1C(=O)SC(Cc2ccc(N)cc2)C1=O` (configuration not stated), the melting point was 103 to 104 °C.

For `CN(C)CC1CCC2(CC1)Nc1cc(Cl)c(S(N)(=O)=O)cc1S(=O)(=O)N2` (configuration not stated), the melting point is 273 °C.

`CCc1c(OCc2ccccc2)nc(OCc2ccccc2)nc1C(=O)c1cc(C)cc(C#N)c1` had a melting point of 123 to 124 °C.

Take `CCCCN(CCCC)c1ccc(C=CC=CC=CC2=C(C#N)C(=C(C#N)C#N)OC2(C)C(F)(F)F)c(OC)c1` (configuration not stated): the melting point lay in the range of 168 to 172 °C.

Turning to `Cn1cc(C2=C(c3cn(CCCN=C=S)c4ccccc34)C(=O)NC2=O)c2ccccc21`, the melting point was 219 to 221 °C.

Turning to `CCCCNC(=NC#N)Nc1cccnc1`, the melting point was 96 to 97 °C.

As for `N#Cc1cc(Cl)ccc1Oc1cc(N2CCOCC2)c(F)cc1O`, the melting point is 149 to 151 °C.

`CCOc1ccc(-c2nc(-c3ccc(OC4OC(CO)C(O)C(O)C4O)cc3)cs2)cc1OCC` (configuration not stated) gave a melting point of 138 to 140 °C.

In the case of `NCC1CCN(CCc2ccc(O)cc2)CC1`, the melting point is 166 to 168 °C.

As for `CC1CC(=O)C2OCC1O2` (configuration not stated), the melting point is 122 to 125 °C.

`Cn1c2ccc(C(=O)c3ccccc3)cc2c2cc(C(=O)c3ccccc3)ccc21` returned a melting point of 222 °C.

In turn, `Fc1ccc(-c2nc(Cl)nc3c2CCC3)cc1` returned a melting point of 106 to 107 °C.

As for `CC(=O)NCCCCCNc1ccc(NCCN(C)C)c2c1C(=O)c1ccccc1C2=O`, the melting point was in the range of 138 to 139 °C.

Compound `Cc1cn(-c2cc([N+](=O)[O-])cc(C(F)(F)F)c2)cn1` yielded a melting point of 118 to 119 °C.

The compound `CCCCOC(=O)c1ccc(N2CCN(c3ccc(CC(C)O)cc3)CC2)cc1` (configuration not stated) returned a melting point of 85 to 86 °C.

With `CSc1n[nH]c(NC(=O)c2ccccc2O)n1`, the melting point was in the range of 306 to 309 °C.

Compound `COC(=O)c1c(OC)cccc1C(=O)O` showed a melting point of 140 to 141 °C.

`FC(F)(F)C1(c2cc(Cl)cc(Cl)c2)CC(c2ccc(-c3cn[nH]c3)c3ccccc23)=NO1` (configuration not stated) displayed a melting point of 117 to 120 °C.

On to `c1ccc(-c2nc(SCCOCCSc3nc(-c4ccccc4)c(-c4ccccc4)[nH]3)[nH]c2-c2ccccc2)cc1`, for which the melting point was in the range of 232 to 234 °C.

`Cc1nc(CSc2cccc(Cl)c2Cl)no1` yielded a melting point of 66 to 68 °C.

Turning to `CC(C(O)CCC1CC1)C1CCC2C3CC=C4CC(O)CCC4(C)C3CCC12C` (configuration not stated), the melting point is 174 to 175 °C.

As to `CCCCCOc1ccc(-c2ccc(CC(=O)c3ccccc3)cc2)cc1`, the melting point was 86 °C.

`Cc1cccc(C)c1NC(=O)CCNCCNC(C)C` gave a melting point of 69.5 °C.

`COC(=O)[C@@H]1CCCC[C@H]1C[C@@H](O)[C@H](Cc1ccccc1)NC(=O)OC(C)(C)C`: the melting point fell in the range of 127 to 128 °C.

Turning to `Oc1ccc(Cn2cnc3c(-c4ccco4)ncnc32)cc1`, the melting point lay in the range of 231 to 233 °C.

Compound `Clc1nc(Cl)c2c(n1)CCC2` came in with a melting point of 77 to 79 °C.

With `COC=NS(=O)(=O)c1cc(C(C)C)c(C#N)cc1C(C)C`, the melting point was in the range of 130 to 132 °C.

Consider `Brc1ccc2c(Br)c3cc(Br)ccc3c(Br)c2c1`, for which the melting point lay within 293 to 296 °C.

For `CC(Br)C(=O)c1cc2c(Cl)cccc2s1` (configuration not stated), the melting point was in the range of 104 to 106 °C.

Compound `CCOC(=O)c1oc(SC)c2c1CCC(Br)C2=O` (configuration not stated) returned a melting point of 130 to 131 °C.

As for `CC1(C)CCC(C)(C)c2cc(C#Cc3ccc(CO)cc3)ccc21`, the melting point lay within 115 to 117 °C.

For `CCOc1ccc2c(c1)n(C1CCCCC1)c(=O)n2Cc1ccc(C(=O)NC(C)(C)C)cc1OC`, the melting point worked out at 186 °C.

Regarding `CC(C)n1nc(-c2c(Nc3ccccc3)nc(N)nc2-c2ccc(F)cc2)ccc1=O`, the melting point is more than 250 °C.

`COc1ccc(C(=O)Cc2c(Cl)cncc2Cl)c2c1OC(C)(C)O2`: the melting point lay within 133 to 134 °C.

With `O=C1N(Cc2ccccc2)C2CSC(O)C2N1Cc1ccccc1` (configuration not stated), the melting point is 163 to 164 °C.

With `CC(C)(C)OC(=O)N1C[C@@H]2OCc3c(-c4cccc(F)c4)nnn3[C@H]2C1`, the melting point fell in the range of 249 to 250 °C.

`Oc1cccc(C2CN=C(c3ccccn3)O2)c1` (configuration not stated) displayed a melting point of 139 to 141 °C.

For the compound `N#CCN1CCc2oc3ccccc3c2C1`, the melting point came out at 78 °C.

Compound `CC(=O)Nc1nc(=O)n(C(=O)c2ccc(C)cc2)cc1F` had a melting point of 147 to 148 °C.

Take `Cc1cc(C)cc(NC(=O)[C@@H](C)NC(=O)c2cc([N+](=O)[O-])c(Cl)c([N+](=O)[O-])c2)c1`: the melting point was 202 to 204 °C.
